How the values were obtained:
[1] = target: T1, hACC1 (Homo sapiens, UniProt Q13085); assay: ACC inhibitory assay (ADP-Glo luminescent ADP detection); assay type: biochemical; details: for inhibition at 0.1 µM: hACC1, 0.1 μM, read-out: IRs (%) 0.1 μM; for inhibition at 0.1 µM / inhibition at 5 µM: mean of two independent experiments (Table 2); for inhibition at 5 µM: hACC1, 5 μM, read-out: IRs (%) 5 μM
T1 construct: purchased BPS Biosciences 50200
Experimental: The hACC1 inhibitory activity of target compounds was evaluated using the ADP-Glo^TM kinase assay according to our previous report. In brief, 4.5 µL of working solution containing recombinant ACC1 (BPS Biosciences, 50200) and 0.5 µL of diluted compound solution were added to a 384-well Optiplate plate (Perkin Elmer, 6007290, PerkinElmer, Waltham, MA, USA), and incubated at room temperature for 15 min. Then, 5 µL of substrate mixture was added to the 384-well plate to start the reaction. After incubating for 60 min at room temperature, 10 µL of ADP-Glo reagents were added to the 384-well plate, and incubated for another 40 min to deplete the remaining ATP. Finally, 20 µL of kinase detection reagents were added to the plate and incubated for 40 min to convert ADP to ATP. The luminescent signal of ATP was determined using an Envision multifunction reader (Perkin Elmer, 2104–0010, PerkinElmer, Waltham, MA, USA). The IC50 values were calculated using GraphPad Prism 5 software (GraphPad Software, La Jolla, CA, USA).

[2] = tested on: HepG2 cells; assay: MTT assay, HepG2; assay type: cell-based; details: Homo sapiens, 72 h, mean ± SD (n = 3)
Experimental: (§1) The cytotoxicity of target compounds was assessed by MTT assay. Briefly, cells were seeded in 96-well plates at a density of 2500–3000 per well and incubated for 24 h in a CO2 incubator. Then, the cells were treated with candidate compounds at seven different concentrations for 72 h. At the end of treatment, the MTT reagent (5 mg/mL) was added to determine the cell viability. After 4 h of incubation, the resulting medium was removed, and 100 µL of DMSO was added to dissolve the formed formazan. Finally, the absorbance at 550 nm was measured by a microplate reader (Varioskan LUX, […]), with the IC50 values calculated using GraphPad Prism 5 software (GraphPad Software, La Jolla, CA, USA).

[3] = tested on: MDA-MB-231 cells; assay: MTT assay, MDA-MB-231; assay type: cell-based; details: Homo sapiens, 72 h, mean ± SD (n = 3)
Experimental: as §1

[4] = Cell viability of non-cancerous HUVEC; assay type: cell-based, human; details: human, HUVEC cells (non-cancerous)
Experimental: To investigate the selectivity of the synthesised compounds towards cancer cells, the non-cancerous HUVEC cell line was selected for testing.
as §1

[5] = tested on: A549 cells; assay: MTT assay, A549; assay type: cell-based; details: Homo sapiens, 72 h, mean ± SD (n = 3)
Experimental: as §1

| Structure (SMILES) | hACC1 IRs (%) ([1]; at 5 μM, HTVS candidates (Table 1)) | inhibition at 0.1 µM [1] [%] | inhibition at 5 µM [1] [%] | IC50 ([1]; hACC1, mean ± SD) [µM] | IC50 [2] [µM] | IC50 [3] [µM] | viability at 72 h, 10 µM [4] [%] | IC50 [5] [µM] | melting point [°C] | ACC inhibitory activity (in words) ([1]; screening at 5 µM and 0.1 µM) |
| --- | --- | --- | --- | --- | --- | --- | --- | --- | --- | --- |
| O=C(c1c2ccccc2cc2ccccc12)N1CCC(N2CCC[C@@H](C(=O)N3CCOCC3)C2)CC1 [CP-640186, reference compound] | 86.83 | 48.9 | 87.8 | 0.109 ± 0.0062 | – | – | – | – | – | – |
| CCNC(=O)NC(C)c1cc(-c2ccc(Oc3ccccc3)cc2)no1 (centres unmarked) [Compound 6n, 1-Ethyl-3-(1-(3-(4-phenoxyphenyl)isoxazol-5-yl)ethyl)urea] | – | 13.4 | 44.7 | – | 9.04 ± 1.43 | 8.63 ± 1.14 | 83.2 ± 2.33 | 5.78 ± 0.86 | 158.5 to 159.5 | – |
| CC(=O)NC(C)c1cc(-c2ccc(Oc3ccc(OC(C)C)cc3)cc2)no1 (centres unmarked) [Compound 6f, N-(1-(3-(4-(4-Isopropoxyphenoxy)phenyl)isoxazol-5-yl)ethyl)acetamide] | – | 16.7 | 52.8 | – | > 10 | 6.77 ± 0.74 | 35 ± 1.66 | > 10 | 124 to 126 | – |
| CCOc1ccc(Oc2ccc(-c3cc(C(C)NC(C)=O)on3)cc2)cc1 (centres unmarked) [Compound 6d, N-(1-(3-(4-(4-Ethoxyphenoxy)phenyl)isoxazol-5-yl)ethyl)acetamide] | – | 12.7 | 45.5 | – | > 10 | > 10 | 89.1 ± 6.09 | > 10 | 106.5 to 107.5 | – |
| CC(=O)NC(C)c1cc(-c2ccc(Oc3ccccc3)cc2)no1 (centres unmarked) [Compound 6h, N-(1-(3-(4-Phenoxyphenyl)isoxazol-5-yl)ethyl)acetamide] | – | 8.78 | 36.4 | – | > 10 | > 10 | 91.5 ± 2.58 | > 10 | 118.5 to 119.5 | – |
| CCOC(=O)NC(C)c1cc(-c2ccc(Oc3ccccc3)cc2)no1 (centres unmarked) [Compound 6m, Ethyl (1-(3-(4-phenoxyphenyl)isoxazol-5-yl)ethyl)carbamate] | – | 3.57 | 16.8 | – | > 10 | > 10 | 79.1 ± 4.76 | > 10 | 106.5 to 107.5 | hardly observed |
| COc1cccc2c1C(=O)c1c(O)c3c(c(O)c1C2=O)C[C@@](O)(C(=O)CO)C[C@@H]3O[C@H]1C[C@H](N)[C@H](O)[C@H](C)O1 [DOX, doxorubicin, reference compound] | – | – | – | – | 0.67 ± 0.13 | 0.42 ± 0.09 | 18.9 ± 4.02 | 0.52 ± 0.07 | – | – |
| COc1ccc(Oc2ccc(-c3cc(C(C)NC(C)=O)on3)cc2)cc1 (centres unmarked) [Compound 6c, N-(1-(3-(4-(4-Methoxyphenoxy)phenyl)isoxazol-5-yl)ethyl)acetamide] | – | 9.89 | 37.3 | – | > 10 | > 10 | 82.4 ± 4.85 | > 10 | 127.5 to 128.5 | – |
| CC(NC(=O)C1CC1)c1cc(-c2ccc(Oc3ccccc3)cc2)no1 (centres unmarked) [Compound 6j, N-(1-(3-(4-Phenoxyphenyl)isoxazol-5-yl)ethyl)cyclopropanecarboxamide] | – | 20.8 | 58.4 | – | 3.48 ± 0.74 | 1.13 ± 0.38 | 59.5 ± 0.95 | 2.66 ± 0.47 | 168.5 to 169.5 | – |
| CC(=O)NC(C)c1cc(-c2ccc(Oc3ccc(O)cc3)cc2)no1 (centres unmarked) [Compound 6b, N-(1-(3-(4-(4-Hydroxyphenoxy)phenyl)isoxazol-5-yl)ethyl)acetamide] | – | 8.76 | 26.8 | – | > 10 | > 10 | 88.1 ± 3.83 | > 10 | 103 to 105 | – |
